CC20 and Activity data for 16 compounds are collected here from ChEMBL document CHEMBL4831514, “Novel betulin dicarboxylic acid ester derivatives as potent antiviral agents: Design, synthesis, biological evaluation, structure-activity relationship and in-silico study” (Eur J Med Chem, 2021).

One data set concerns A549. Put plainly: Cytotoxicity against human A549 cells assessed as reduction in cell viability incubated for 48 hrs by MTT assay. Format: cell-based. The settings on record: a549, 48 h. On the technique in general: Tetrazolium dyes change colour on reduction, which living cells bring about.
The subject of another data set is MDCK. Put plainly: Cytotoxicity against MDCK cells assessed as reduction in cell viability incubated for 72 hrs by MTT assay. Format: cell-based, Canis lupus familiaris. The settings on record: dog, mdck, 72 h.
The subject of data set [1] is Human alphaherpesvirus 1. The data set is described as follows: Antiviral activity against Human herpesvirus-1 MacIntyre infected in A549 cells assessed as inhibition of viral adsorption at early stage of replication treated for 1 hr during viral infection followed by replacement with fresh medium and measured after 48 hrs by MTT assay. Format: functional, organism-based.

The subject of a further data set is Enterovirus E. Put plainly: Antiviral activity against Enterovirus E LCR-4 infected in A549 cells assessed as inhibition of viral adsorption at early stage of replication treated for 1 hr during viral infection followed by replacement with fresh medium and measured after 72 hrs by MTT assay. Format: functional, organism-based.
For data set [2], the system named is Human adenovirus 5. Put plainly: Antiviral activity against Human adenovirus 5 Adenoid 75 infected in A549 cells assessed as inhibition of viral adsorption at early stage of replication treated for 1 hr during viral infection followed by replacement with fresh medium and measured after 72 hrs by MTT assay. It counts as functional, organism-based.
Data set [3] deals with Vesicular stomatitis virus. The data set is described as follows: Antiviral activity against Vesicular stomatitis virus Indiana infected in A549 cells assessed as reduction in virus titer preincubated for 24 hrs followed by viral infection and measured after 72 hrs by microscopic analysis. Format: functional, organism-based.
The subject of data set [4] is Human alphaherpesvirus 1. The data set is described as follows: Antiviral activity against Human herpesvirus 1 MacIntyre infected in A549 cells assessed as reduction in virus titer preincubated for 24 hrs followed by viral infection and measured after 72 hrs by microscopic analysis. It counts as functional, organism-based.
For data set [5], the system named is Human adenovirus 5. Put plainly: Antiviral activity against Human adenovirus 5 Adenoid 75 infected in A549 cells assessed as reduction in virus titer preincubated for 24 hrs followed by viral infection and measured after 72 hrs by microscopic analysis. Format: functional, organism-based.

Calls of active or inactive are those of the source. No cut-off for these calls is given here.

On to `C=C(C)[C@@H]1CCC2(COC(=O)CCCCCCCCCC(=O)N3CCSCC3)CC[C@]3(C)[C@H](CC[C@@H]4[C@@]5(C)CC[C@H](O)C(C)(C)[C@@H]5CC[C@]43C)[C@@H]12` (single isomer, unassigned), for which the CC20 in the data set on A549 and with MDCK was 114.81 µM throughout. The outcome (with Human alphaherpesvirus 1 [1]; in the data set with Enterovirus E; in the data set with Human adenovirus 5 [2]; in data set [3]; in the data set on Human alphaherpesvirus 1 [4]; in the data set with Human adenovirus 5 [5]) was inactive.
Regarding `C#CC1(NC(=O)CCCCCCCCCC(=O)OC[C@]23CC[C@@H](C(=C)C)[C@@H]2[C@H]2CCC4[C@@]5(C)CC[C@H](O)C(C)(C)[C@@H]5CC[C@@]4(C)[C@]2(C)CC3)CCCCC1` (single isomer, unassigned), the CC20 with A549 and in the data set with MDCK was 102.46 µM throughout. Besides, the result (in the data set with Human alphaherpesvirus 1 [1]; in the data set on Enterovirus E; in the data set with Human adenovirus 5 [2]; in data set [3]; in the data set on Human alphaherpesvirus 1 [4]; in the data set on Human adenovirus 5 [5]) was inactive.
In the case of `C#CCNC(=O)/C(C)=C/C(=O)OC[C@]12CC[C@@H](C(=C)C)[C@@H]1[C@H]1CC[C@@H]3[C@@]4(C)CC[C@H](O)C(C)(C)[C@@H]4CC[C@@]3(C)[C@]1(C)CC2`, the CC20 with A549 amounted to 10.56 µM; with MDCK it was 84.46 µM. The outcome (in the data set on Human alphaherpesvirus 1 [1]; with Enterovirus E; in the data set on Human adenovirus 5 [2]; in data set [3]; with Human alphaherpesvirus 1 [4]; in the data set with Human adenovirus 5 [5]) was inactive.
With `C=C(C)[C@@H]1CC[C@]2(COC(=O)/C=C(\C)C(=O)O)CC[C@]3(C)[C@H](CC[C@@H]4[C@@]5(C)CC[C@H](O)C(C)(C)[C@@H]5CC[C@]43C)[C@@H]12`, the CC20 in the data set on A549 was 11.26 µM; in the data set on MDCK, 5.63 µM. In addition, the result (in the data set with Human alphaherpesvirus 1 [1]; in the data set on Enterovirus E; with Human adenovirus 5 [2]; in data set [3]; in the data set with Human alphaherpesvirus 1 [4]; in the data set on Human adenovirus 5 [5]) was inactive.
For `C#CC1(NC(=O)c2ccccc2C(=O)OC[C@]23CC[C@@H](C(=C)C)[C@@H]2[C@H]2CC[C@@H]4[C@@]5(C)CC[C@H](O)C(C)(C)[C@@H]5CC[C@@]4(C)[C@]2(C)CC3)CCCCC1`, the CC20 was determined as 109.82 µM in the data set with A549 and 1.57 µM in the data set with MDCK. Also, the outcome (in the data set with Human alphaherpesvirus 1 [1]; in the data set with Enterovirus E; in the data set on Human adenovirus 5 [2]; in data set [3]; in the data set with Human alphaherpesvirus 1 [4]; in the data set with Human adenovirus 5 [5]) was inactive.
As for `C=C(C)[C@@H]1CC[C@]2(COC(=O)/C=C(\C)C(=O)N3CCSCC3)CC[C@]3(C)[C@H](CC[C@@H]4[C@@]5(C)CC[C@H](O)C(C)(C)[C@@H]5CC[C@]43C)[C@@H]12`, the CC20 in the data set on A549 and in the data set with MDCK was 61.5 µM each time. Besides, the result (in the data set on Human alphaherpesvirus 1 [1]; in the data set with Enterovirus E; with Human adenovirus 5 [2]; in data set [3]; in the data set with Human alphaherpesvirus 1 [4]; in the data set with Human adenovirus 5 [5]) was inactive.
Consider `C=C(C)[C@@H]1CC[C@]2(COC(=O)CCC(=O)N3CCOCC3)CC[C@]3(C)[C@H](CC[C@@H]4[C@@]5(C)CC[C@H](O)C(C)(C)[C@@H]5CC[C@]43C)[C@@H]12`, for which the results for the CC20 with A549 and in the data set with MDCK were 9.63 µM and 4.78 µM, respectively. Also, the outcome (in the data set with Human alphaherpesvirus 1 [1]; in the data set with Enterovirus E; in the data set with Human adenovirus 5 [2]; in data set [3]; in the data set on Human alphaherpesvirus 1 [4]; in the data set with Human adenovirus 5 [5]) was inactive.
In the case of `C=C(C)[C@@H]1CC[C@]2(COC(=O)/C=C/C(=O)O)CC[C@]3(C)[C@H](CC[C@@H]4[C@@]5(C)CC[C@H](O)C(C)(C)[C@@H]5CC[C@]43C)[C@@H]12`, the CC20 with A549 was 11.55 µM; in the data set with MDCK it was 5.73 µM. Further, the outcome (with Human alphaherpesvirus 1 [1]; in the data set with Enterovirus E; in the data set on Human adenovirus 5 [2]; in data set [3]; with Human alphaherpesvirus 1 [4]; in the data set on Human adenovirus 5 [5]) was inactive.
Turning to `C=C(C)[C@@H]1CC[C@]2(COC(=O)c3cccc(C(=O)N4CCSCC4)c3)CC[C@]3(C)[C@H](CC[C@@H]4[C@@]5(C)CC[C@H](O)C(C)(C)[C@@H]5CC[C@]43C)C12` (single isomer, unassigned), the CC20 in the data set with A549 and in the data set on MDCK was 117.79 µM each time. For the same compound, the outcome (in the data set with Human alphaherpesvirus 1 [1]; in the data set with Enterovirus E; in the data set with Human adenovirus 5 [2]; in data set [3]; with Human alphaherpesvirus 1 [4]; in the data set with Human adenovirus 5 [5]) was inactive.
For `C=C(C)[C@@H]1CC[C@]2(COC(=O)CCCC(=O)N3CCSCC3)CC[C@]3(C)[C@H](CC[C@@H]4[C@@]5(C)CC[C@H](O)C(C)(C)[C@@H]5CC[C@]43C)[C@@H]12`, the CC20 in the data set with A549 stood at 122.7 µM; with MDCK, 61.35 µM. Further, the result (in the data set on Human alphaherpesvirus 1 [1]; in the data set on Enterovirus E; with Human adenovirus 5 [2]; in data set [3]; with Human alphaherpesvirus 1 [4]; in the data set on Human adenovirus 5 [5]) was inactive.
For the compound `C=C(C)[C@@H]1CC[C@]2(COC(=O)CCC(=O)O)CC[C@]3(C)[C@H](CC[C@@H]4[C@@]5(C)CCC(O)C(C)(C)[C@@H]5CC[C@]43C)[C@@H]12` (single isomer, unassigned), the CC20 in the data set with A549 and in the data set with MDCK was 11.51 µM in each case. Moreover, the result (in the data set with Human alphaherpesvirus 1 [1]; in the data set with Enterovirus E; in the data set with Human adenovirus 5 [2]; in data set [3]; in the data set with Human alphaherpesvirus 1 [4]; in the data set with Human adenovirus 5 [5]) was inactive.
`C=C(C)[C@@H]1CC[C@]2(COC(=O)CCCCCCCCCC(=O)N3CCCCC3)CC[C@]3(C)[C@H](CC[C@@H]4[C@@]5(C)CC[C@H](O)C(C)(C)[C@@H]5CC[C@]43C)[C@@H]12`: the CC20 in the data set with A549 worked out at 127.23 µM; in the data set with MDCK, 127.84 µM. In addition, the outcome (in the data set with Human alphaherpesvirus 1 [1]; in the data set on Enterovirus E; in the data set with Human adenovirus 5 [2]; in data set [3]; in the data set on Human alphaherpesvirus 1 [4]; in the data set on Human adenovirus 5 [5]) was inactive.
For the compound `Nc1ccn(C[C@@H](CO)OCP(=O)(O)O)c(=O)n1.O.O` [CIDOFOVIR], the CC20 in the data set on A549 was 358.42 µM. The result with Human alphaherpesvirus 1 [1], with Enterovirus E and with Human adenovirus 5 [2] was inactive.
On to `C=C(C)[C@@H]1CC[C@]2(COC(=O)c3cccc(C(=O)O)c3)CC[C@]3(C)[C@H](CC[C@@H]4[C@@]5(C)CC[C@H](O)C(C)(C)[C@@H]5CC[C@]43C)[C@@H]12`, for which the CC20 with A549 came to 21.15 µM; in the data set on MDCK, 42.3 µM. Also, the outcome (in the data set with Human alphaherpesvirus 1 [1]; in the data set on Enterovirus E; in the data set with Human adenovirus 5 [2]; in data set [3]; in the data set on Human alphaherpesvirus 1 [4]; in the data set with Human adenovirus 5 [5]) was inactive.
Regarding `C#CCNC(=O)CCCCCCCCCC(=O)OC[C@]12CC[C@@H](C(=C)C)[C@@H]1[C@H]1CC[C@@H]3[C@@]4(C)CC[C@H](O)C(C)(C)[C@@H]4CC[C@@]3(C)[C@]1(C)CC2`, the CC20 was 38.46 µM in the data set on A549 and 153.85 µM in the data set on MDCK. Further, the result (in the data set on Human alphaherpesvirus 1 [1]; in the data set on Enterovirus E; in the data set with Human adenovirus 5 [2]; in data set [3]; with Human alphaherpesvirus 1 [4]; in the data set with Human adenovirus 5 [5]) was inactive.
As to `C=C(C)[C@@H]1CC[C@]2(COC(=O)c3ccccc3C(=O)O)CC[C@]3(C)[C@H](CC[C@@H]4[C@@]5(C)CC[C@H](O)C(C)(C)[C@@H]5CC[C@]43C)[C@@H]12`, the CC20 amounted to 21.15 µM with A549 and 42.3 µM in the data set on MDCK. Besides, the outcome (in the data set with Human alphaherpesvirus 1 [1]; in the data set on Enterovirus E; with Human adenovirus 5 [2]; in data set [3]; with Human alphaherpesvirus 1 [4]; in the data set on Human adenovirus 5 [5]) was inactive.
